Literature values as cited in patent US20160113981A1, “TOPICAL COMPOSITION” (priority 2014, published 2016).

What was measured:
[1] = after topical application of lavender oil
[2] = equimolar dose of indomethacin

Row | Structure (SMILES) | time of peak in the blood [1] [min] | anti-inflammatory effect compared with indomethacin [2]
1 | C=CC(C)(CCC=C(C)C)OC(C)=O (stereo not drawn) [linalyl acetate] | 19 | –
2 | CC1=CC[C@@]2(C)[C@H]([C@@H]1C)[C@H]1CC[C@@H]3[C@@]4(C)CC[C@H](O)C(C)(C)[C@@H]4CC[C@@]3(C)[C@]1(C)C[C@@H]2O [faradiol] | – | same effects as an equimolar dose of indomethacin
3 | C=CC(C)(O)CCC=C(C)C (stereo not drawn) [linalool] | 19 | –
